Patent publication US20250041307A1, “Uses of Bicyclic Compounds for the Treatment of Diseases” (Athira Pharma, Inc., priority 2021, published 2025)

Columns and labels:
Assay type in all cases: cell-based
[1] = system: MDCK cells; experiment: Cell scattering behavior assay; set-up: key: − indicates that the compound failed to significantly promote cell scattering behavior; + indicates maximum potency at or above 100 nM; ++ indicates maximum potency at or above 10 nM; +++ indicates maximum potency at or above 1 nM; ++++ indicates maximum potency at or above 0.1 nM; conditions: with 5 ng/mL HGF, 24 hours, normalized particle count compared to HGF treatment alone
Procedure: MDCK cells were grown under normal conditions and observed to spontaneously form tight colonies as they proliferate. MDCK cells respond to HGF treatment by moving away from each other (scattering), which is quantified to assess the amount of HGF/MET activation in the cell population. In this experiment, MDCK cells were plated in a 96-well format, treated with HGF and exemplary compounds, fluorescently stained, imaged in large fields, and scattering behavior was quantified. Quantification was determined by analyzing the number of continuous groups of cells compared to the total stained area imaged (normalized particle counts).
MDCK cells were plated at low density in black-walled imaging plates and allowed to attach overnight at 37° C. and 5% CO2 in DMEM+10% FBS. Cells were then starved to 2 hours in DMEM without FBS (“starve media”). Samples containing exemplary compounds were prepared in DMEM without FBS and included 5 ng/mL HGF protein (“treatment media”). A control curve was also prepared for each plate using HGF concentrations of 0, 5, 10, and 20 ng/mL. Starve media was replaced with treatment media and cells were incubated for 24 hours at 37° C. and 5% CO2.
After incubation, cells were fixed by replacing treatment media with cold ethanol and incubating for 20 minutes at 4° C. Cells were then rehydrated by washing with PBS and then with stain solution (fluorescent wheat germ agglutinin; WGA488 at 20 μg/mL in PBS). Cells were incubated with stain solution 30 minutes at room temperature after which stain solution was replaced with fresh PBS.
Fields of cells were imaged using an iCyte high content imager in the green wavelength. Images were converted to binary and analyzed for particle size and particle count. For the purpose of analysis, an individual cell touching no other cells or separated colonies of cells were identified as particles, and particle counts were normalized by the total signal area to account for differences in cell number. […] Compound potency was assessed by statistical increase in normalized particle count compared to HGF treatment alone.

[2] = system: HGF/MET system; experiment: Phospho-MET ELISA; set-up: key: − indicates that the compound failed to significantly augment MET phosphorylation; + indicates maximum potency at or above 100 nM; ++ indicates maximum potency at or above 10 nM; +++ indicates maximum potency at or above 1 nM; ++++ indicates maximum potency at or above 0.1 nM; conditions: HEK293 cells; with 1 ng/mL recombinant HGF; 15 minutes; augmentation of MET phosphorylation (pMET ELISA)
Procedure: Compounds were screened for potency towards the HGF/MET system using phospho-MET (pMET) ELISA kits (Cell Signaling). pMET levels were detected in samples having low (1 ng/mL) and high (10 ng/mL) concentrations of HGF.
HEK293 cells were prepared by passage into 6-well multi-plates and grown at 37° C. at 5% CO2 in DMEM+10% FBS until approximately 90% confluent. Cells were then starved for at least 8 hours in serum-free growth media.
Exemplary compounds were prepared in DMEM+0.1% FBS, diluted and added to treatment media with 1 ng/mL recombinant HGF protein (R&D Systems). Cells were incubated in triplicate at 37° C. and 5% CO2 for 15 minutes. Samples were then treated with 180 μL ice-cold RIPA (radioimmunoprecipitation assay) buffer and cells were lysed on ice for 15 minutes. Lysates were cleared by centrifugation at 16,000-g for 15 minutes and the supernatant was retained. Samples were normalized using a BCA assay of lysates to determine protein concentrations across the samples.
Between 50 and 100 μg total protein lysate was loaded into ELISA wells in pMET Sandwich ELISA kit (Cell Signaling Catalog #7227C), ensuring equal protein load in each well. The ELISA was processed according to manufacturer's instructions. After color developed, absorbance was read on an optical plate reader at 450 nm.
Potency measurements were determined using peak efficacy by scaling test compound dose treatments along a scale of 1-10 between 1 ng/mL and 10 ng/mL HGF doses according to the following formula: […]
where y is the normalized data-point, x is the raw data point, A is the mean HGF at 1 ng/mL, and B is the mean HGF at 10 ng/mL.

[3] = system: Rat primary cortical neuron cultures; experiment: Protection from neurotoxicity in vitro (Cell Titer-Glo viability); conditions: 24 hours, with HGF 5 ng/ml
Procedure: HGF/MET signaling activation is expected to protect cells, including neurons, from cell death. […] Hydrogen peroxide (H2O2) treatment produces toxic oxidative stress. Bacteria-derived lipopolysaccharide (LPS) treatment induces inflammatory cell death. Treatment with excess glutamate (Glut) produces excitotoxicity in neuron cultures. Treatment with 1-methyl-4-phenylpyridinium (MPP^+) causes cell death by inhibition of mitochondrial function.
Rat primary cortical neuron cultures were grown at 37° C., 5% CO2 in Complete Neurobasal Medium supplemented with B27/GDNF/BDNF containing 10% FBS until maturity and were then seeded in 384-well plate at 5,000 cells/well. Cultures were then treated for 15 minutes with 1 uM, 100 nM, 10 nM, 1 nM, or 0.1 nM of compound 1a. Cells were then subjected to individual conditional insults for 24 hours at the following concentrations: H2O2 at 1 uM, LPS at 1 uM, glutamate at 25 uM, MPP+ at 500 uM. All treatments contained recombinant human HGF (R&D Systems) at a concentration of 5 ng/ml.
To quantify neuroprotection, cell viability was measured with the Cell Titer-Glo Luminescent Cell Viability Assay (Promega, Cat #G7571). Data was normalized to DMSO+HGF control set at 100% cell viability. Statistical analyses for each group (n=4) were performed using one-way ANOVA with Tukey's Multiple comparison test.
Data is reported as statistical significance vs. insult control, with NS=not significant, +=p<0.05, ++=p<0.01, and +++=p<0.001.

Row | SMILES | Potency [1] | Potency [2] | Insult effect (% viability vs vehicle) ([3]; 1 uM) | Insult effect (% viability vs vehicle) ([3]; 500 uM)
1 | C=CCCN1CC2N(C(=O)c3ccc(OC(F)F)cc3)CCC(=O)N2C(C)C1=O (stereo not shown) [Compound 18] | − | − |  | 
2 | CC1C(=O)N(CC2CCCC2)CC2N(C(=O)c3ccc(OC(F)F)cc3)CCC(=O)N12 (stereo not shown) [Compound 13] | − | − |  | 
3 | CCCCN1CC2N(Cc3ccc(OC(F)F)cc3)CCC(=O)N2C(C)C1=O (stereo not shown) [Compound 41] | − | − |  | 
4 | CCC(C)CN1CC2N(Cc3c[nH]c4ccccc34)CCC(=O)N2C(C)C1=O (stereo not shown) [Compound 44] | − | − |  | 
5 | C=CCCN1CC2N(Cc3ccc(OC(F)F)cc3)CCC(=O)N2C(C)C1=O (stereo not shown) [Compound 39] | − | − |  | 
6 | COCCCN1CC2N(C(=O)c3ccc(OC(F)F)cc3)CCC(=O)N2C(C)C1=O (stereo not shown) [Compound 33] | − | − |  | 
7 | CC1C(=O)N(CCC2CC2)CC2N(C(=O)c3ccc(OC(F)F)cc3)CCC(=O)N12 (stereo not shown) [Compound 31] | − | − |  | 
8 | OO [Compound H2O2, Hydrogen peroxide, reference compound] |  |  | 64.23% | 
9 | CC1C(=O)N(CCC2CCCC2)CC2N(Cc3ccc(OC(F)F)cc3)CCC(=O)N12 (stereo not shown) [Compound 38] |  | − |  | 
10 | CCC(C)CN1CC2N(C(=O)c3ccc(Cl)cc3)CCC(=O)N2C(C)C1=O (stereo not shown) [Compound 10, 1-(4-chlorobenzoyl)-6-methyl-8-(2-methylbutyl)hexahydro-4H-pyrazino[1,2-a]pyrimidine-4,7(6H)-dione] | − | − |  | 
11 | CC1C(=O)N(CC2CCCC2)CC2N(C(=O)c3ccc(C(F)(F)F)cc3)CCC(=O)N12 (stereo not shown) [Compound 15] | − | − |  | 
12 | C[n+]1ccc(-c2ccccc2)cc1 [MPP+, 1-methyl-4-phenylpyridinium, reference compound] |  |  |  | 49.85%
13 | CC1C(=O)N(CCS(C)(=O)=O)CC2N(C(=O)c3ccc(OC(F)F)cc3)CCC(=O)N12 (stereo not shown) [Compound 36] | − | − |  | 
14 | COCCN1CC2N(C(=O)c3ccc(OC(F)F)cc3)CCC(=O)N2C(C)C1=O (stereo not shown) [Compound 32] | − | − |  | 
15 | CC(C)N1CC2N(C(=O)c3ccc(C(F)(F)F)cc3)CCC(=O)N2C(C)C1=O (stereo not shown) [Compound 24] | − | − |  | 
16 | CCC(C)CN1CC2N(Cc3ccc(OC(F)F)cc3)CCC(=O)N2C(CC(N)=O)C1=O (stereo not shown) [Compound 50, 2-(1-(4-(difluoromethoxy)benzyl)-8-(2-methylbutyl)-4,7-dioxooctahydro-2H-pyrazino[1,2-a]pyrimidin-6-yl)acetamide] | − | − |  | 

Row | SMILES | Potency [1] | Potency [2] | Insult effect (% viability vs vehicle) ([3]; 1 uM) | Insult effect (% viability vs vehicle) ([3]; 500 uM)
17 | CC(C)CN1CC2N(C(=O)c3ccc(C(F)(F)F)cc3)CCC(=O)N2C(C)C1=O (stereo not shown) [Compound 23] | − | − |  | 
18 | CC1C(=O)N(CCC2CCC2)CC2N(Cc3ccc(OC(F)F)cc3)CCC(=O)N12 (stereo not shown) [Compound 40] |  | − |  | 
19 | CC1C(=O)N(CCO)CC2N(C(=O)c3ccc(OC(F)F)cc3)CCC(=O)N12 (stereo not shown) [Compound 34, 1-(4-(difluoromethoxy)benzoyl)-8-(2-hydroxyethyl)-6-methylhexahydro-4H-pyrazino[1,2-a]pyrimidine-4,7(6H)-dione] | − | − |  | 
20 | CC1C(=O)N(CCc2cccs2)CC2N(C(=O)c3ccc(OC(F)F)cc3)CCC(=O)N12 (stereo not shown) [Compound 26] | − | − |  | 
21 | CCC(C)CN1CC2N(Cc3ccc(C(F)(F)F)c(Cl)c3)CCC(=O)N2C(C)C1=O (stereo not shown) [Compound 43] | − | − |  | 
22 | CCC(C)CN1CC2N(Cc3ccc(C(F)(F)F)cc3)CCC(=O)N2C(CF)C1=O (stereo not shown) [Compound 48, 6-(fluoromethyl)-8-(2-methylbutyl)-1-(4-(trifluoromethyl)benzyl)hexahydro-4H-pyrazino[1,2-a]pyrimidine-4,7(6H)-dione] |  | − |  | 
23 | CC1C(=O)N(CCc2ccncc2)CC2N(C(=O)c3ccc(OC(F)F)cc3)CCC(=O)N12 (stereo not shown) [Compound 29] |  | − |  | 
24 | CC1C(=O)N(CCc2ccco2)CC2N(C(=O)c3ccc(OC(F)F)cc3)CCC(=O)N12 (stereo not shown) [Compound 25] | − | − |  | 
25 | CC1C(=O)N(CCC2CCCC2)CC2N(Cc3ccc(F)cc3)CCC(=O)N12 (stereo not shown) [Compound 46, 8-(2-cyclopentylethyl)-1-(4-fluorobenzyl)-6-methylhexahydro-4H-pyrazino[1,2-a]pyrimidine-4,7(6H)-dione] | − | − |  | 
26 | CCCCN1CC2N(C(=O)c3ccc(C(F)(F)F)cc3)CCC(=O)N2C(C)C1=O (stereo not shown) [Compound 21] | − | − |  | 
27 | CC1C(=O)N(CC2CCCO2)CC2N(C(=O)c3ccc(OC(F)F)cc3)CCC(=O)N12 (stereo not shown) [Compound 27] |  | − |  | 
28 | CC1C(=O)N(CC2CCC2)CC2N(C(=O)c3ccc(C(F)(F)F)cc3)CCC(=O)N12 (stereo not shown) [Compound 16] | − | − |  | 
29 | CC1C(=O)N(CCC2CCC2)CC2N(Cc3ccc(F)cc3)CCC(=O)N12 (stereo not shown) [Compound 45, 8-(2-cyclobutylethyl)-1-(4-fluorobenzyl)-6-methylhexahydro-4H-pyrazino[1,2-a]pyrimidine-4,7(6H)-dione] |  | − |  | 
30 | CC1C(=O)N(CCN)CC2N(C(=O)c3ccc(OC(F)F)cc3)CCC(=O)N12 (stereo not shown) [Compound 35, 8-(2-aminoethyl)-1-(4-(difluoromethoxy)benzoyl)-6-methylhexahydro-4H-pyrazino[1,2-a]pyrimidine-4,7(6H)-dione] | − | − |  | 
31 | CC1C(=O)N(CCc2ccccc2)CC2N(C(=O)c3ccc(OC(F)F)cc3)CCC(=O)N12 (stereo not shown) [Compound 28] | − | − |  | 
32 | CCC(C)CN1CC2N(Cc3ccc(OC(F)F)cc3)CCC(=O)N2C(CF)C1=O (stereo not shown) [Compound 47, 1-(4-(difluoromethoxy)benzyl)-6-(fluoromethyl)-8-(2-methylbutyl)hexahydro-4H-pyrazino[1,2-a]pyrimidine-4,7(6H)-dione] |  | − |  | 
